# Assay: solution pKa (pH at which the solubility versus pH curve changes slope)
# Type: physicochemical
# Excerpt: The theoretical pKa of a neutral amino acid is a rigorously defined parameter which is independent of temperature and the presence of other components. In accordance with the present invention, the important pKa is the solution pKa which takes into account the actual characteristics of the solution. Thus, the pKa of the neutral amino acid in the actual solution from which it is desired to precipitate the amino acid must be measured. The "solution pKa" is the pH at which the solubility versus pH curve for the solution in question changes slope. For example, if the log of the concentration at saturation is plotted versus pH, two straight line portions of the curve will be noted. The intersection of these straight line portions when extended is considered to be the solution pKa of this solution under the conditions of the test. The solution pKa will depend on the other components in the solution, for example the base that might be present, the temperature and other factors.
compound,measurement,setting,value
N[C@@H](Cc1c[nH]c2ccccc12)C(=O)O [tryptophan],pKa,"ion exchange eluate concentrated by reverse osmosis, 37°C, ion exchange eluate concentrated by reverse osmosis (Example 4)",~8.9
same,pKa,"ion exchange eluate evaporated at 60°C, ion exchange eluate evaporated at 60°C (Example 6)",~8.2
same,pKa,"ion exchange eluate redissolved with ammonium hydroxide, 30°C, ammonia stripping",9
same,pKa,"ion exchange eluate redissolved with ammonium hydroxide, 39°C, ammonia stripping",8.8
same,pKa,"ion exchange eluate redissolved with ammonium hydroxide, 55°C, ammonia stripping",8.4
same,pKa,saturation curve of Fig. 1,~9.2

# — patent EP0299434B1, “High pH recovery of neutral amino acids” (GENENCOR INTERNATIONAL, INC., priority 1987, dated 1989)
